Test results published in patent US11642345B2, “Replication stress pathway agent compositions and methods for treating cancer” (Boundless Bio, Inc., priority 2020, dated 2023).
One block for each compound: values may come before it.

Key:
Calu-3 cells [1] = assay: 5 day viability assay, CellTiter-Glo 2.0; format: cell-based; settings: Homo sapiens, Calu3, ERBB2 amplification, Chromosomal, read-out: 3-5 day acute cytotoxicity EC50
Protocol: (§1) For these long-term growth curves, the EC50 of targeted therapy was first determined in short term 5 day viability assays. To determine the EC50 of irbinitinib, H2170 cells were plated at 3000 cell/well in a 96-well plate; SKBR3 and Calu-3 cells were plated at 3500 cells/well in a 96-well plate. All cells were dosed with irbinitinib continuously for 5 days (serial dilutions ranging from 12 nM to 1 uM) along with a DMSO control. EC50 curves were determined based on cell viability using CellTiter-Glo 2.0 reagent (Promega). […]

SKBR3 cells [2] = assay: 5 day viability assay, CellTiter-Glo 2.0; format: cell-based; settings: Homo sapiens, SK-BR-3; SKBP3, ERBB2 amplification, Chromosomal; read-out: 3-5 day acute cytotoxicity EC50
Protocol: as §1

H2170 cells = assay: 5 day viability assay, CellTiter-Glo 2.0; format: cell-based; settings: Homo sapiens, NCI-H2170
Protocol: as §1

Calu-3 cells [3] = assay: Long-term growth curves under targeted inhibitor; format: cell-based; settings: Calu3, ERBB2 Chromosomal; 2× then 4× the relative EC50, 6 weeks
Protocol: (§2) To measure growth kinetics over time, each cell line was treated once or twice per week with targeted inhibitor against the amplified oncogene.

SKBR3 cells [4] = assay: Long-term growth curves under targeted inhibitor; format: cell-based; settings: SKBP3, ERBB2 Chromosomal; 2× then 4× the relative EC50, 6 weeks
Protocol: as §2

[5] = tested on: HeLa ecDNA+ and HeLa ecDNA− cells; assay: HeLa ecDNA+ vs ecDNA− response to Chk1 inhibition, RS and DNA damage markers (FIG. 41A); format: cell-based
HeLa cells = assay: HeLa cell confluence by high-content microscopy over three weeks, with or without 100 nM methotrexate; format: cell-based; settings: three weeks
Protocol: Cell confluence was measured via high-content microscopy over the time course.
HeLa cells were treated with a WEE1 inhibitor, 0.01-0.3 μM adavosertib alone, with 1 nM-100 nM PD0166285, with 100 nM methotrexate alone, or with a combination of 0.01-0.3 μM adavosertib and 100 nM methotrexate or a combination of 1 nM-100 nM PD0166285 and 100 nM methotrexate over the course of three weeks. Cell confluence was measured via high-content microscopy over the time course.
HeLa cells were treated with a PARG inhibitor, 3-100 μM PD00017273 with (FIG. 35 top panel) or without (FIG. 35 bottom panel) 100 nM methotrexate over the course of 3 weeks. Cell confluence was measured via high-content microscopy over the time course.
Cell confluence was measured via high-content microscopy over the time course. […] However.

[6] = tested on: ecDNA+ (Colo320 DM) and ecDNA− (Colo320 HSR) cells; assay: p-RPA32 S4/S8 foci by immunofluorescence after CHK1i (FIG. 41B); format: cell-based; settings: 16 hr treatment
Source text: Increased Chk1 phosphorylation at S345 indicates higher activation of RS-activated ATR kinase, while increased gH2AX indicates increased damage resulting from DNA double stranded breaks triggered by replication stress. […] Hyperphosphorylated form of Replication Protein A (RPA) 32 Ser4/Ser8 was detected by immunofluorescence in fixed ecDNA+ (Colo320 DM) and ecDNA− (Colo320 HSR) cell line models that were previously treated with CHK1 i GDC-0575 for 16 hr. Representative bar graph represents % total nuclei positive for P-RPA32 S4/S8 foci (minimum threshold of >3 puncta/nuclei) detected by immunofluorescence in ecDNA+ and ecDNA− cells.

[7] = tested on: CT26WT E3 G12C KRAS mutant tumor cells; assay: Treatment of CT26WT E3 G12C KRAS mutant tumors in mice, tumor growth (Examples 3 and 4); format: in vivo; settings: adagrasib 50 mg/kg orally once per day
Source text: (§3) Mice were implanted with CT26WT E3 G12C KRAS mutant tumor cells.
as §3

parental CT26 WT E3 line = assay: Culture of parental line with adagrasib; format: cell-based
[8] = tested on: COLO320-DM and SNU16 (ecDNA+), COLO320-HSR and DLD1 (ecDNA−) cell models; assay: In vitro soft agar colony formation assay, 21 days, RNRi (FIG. 40A); format: cell-based; settings: treated once on day of seeding, increasing doses
Protocol: (§4) FIGS. 40A-40C show inhibition of RNR blocks nucleotide synthesis causing enhanced replication stress and reduced cellular transformation in ecDNA+ compared to ecDNA-tumor cells. […] In FIG. 40A, to evaluate cellular transformation, an in vitro soft agar colony formation assay was conducted wherein ecDNA bearing COLO320-DM and SNU16 cell models were grown alongside ecDNA− cell models, COLO320-HSR and DLD1 in this 3D-format assay for 21 days. Cells were treated individually only once on the day of the seeding of cells at increasing doses of RNRi, (5-chloro-2-[[rac-(1S,2R)-2-(6-fluoro-2,3-dimethyl-phenyl)-1-(2-oxo-3H-1,3,4-oxadiazol-5-yl)propyl]sulfamoyl]benzamide). In FIG. 40B, to determine change in ecDNA carrying MYC amplified oncogene counts, ecDNA+ (COLO320-DM) cells were treated with an IC-90 dose (10 uM) of RNRi for 21 days. Cells in log-growth phase were arrested in metaphase. FISH (Florescent in-situ hybridization) for MYC oncogene was performed on the fixed metaphase spreads and the nuclei were counterstained with DAPI. […] Cells were lysed and immunoblotted with pRPA32-S33 antibody as a marker of ssDNA-damage induced replication stress.

[9] = tested on: ecDNA+ (COLO320-DM) cells; assay: IC-90 and IC-70 doses of RNRi in COLO320-DM cells; format: cell-based
Protocol: as §4

KATOIII cells [10] = assay: Long-term growth curves under targeted inhibitor; format: cell-based; settings: infigratinib at EC90 (1 uM), 11 weeks
Protocol: as §2

SNU16 cells [11] = assay: Long-term cell growth / resistance development in SNU16 cells; format: cell-based, human; settings: for cell growth / resistance formation: 9 weeks
Protocol: Each treatment arm was terminated once the cell number reached 5×10^6.
SNU16 cells were subdivided into five groups and each group of 1×10^6 cells was subjected to treatment with 1 μM infigratinib, 1 μM erlotinib, 1 μM infigratinib and 1 μM erlotinib, 0.1 μM adavosertib and cell growth was recorded over 9 weeks.
SNU16 cells were subdivided into five groups and each group of 1×10^6 cells was subjected to treatment with infigratinib, erlotinib, PD00017273, infigratinib and erlotinib, or infigratinib and PD00017273 and cell growth was recorded over 9 weeks.
SNU16 (CRL-5974) cell line was purchased from ATCC. SNU16 cells were grown in RPMI 1640 medium (Fisher Scientific) with 10% FBS and 100 U/ml penicillin/streptomycin (Fisher Scientific). For the resistance experiments, SNU16 cells were plated at 2 million per T75 flask and were treated with either 1 μM infigratinib (Selleck Chemicals), 1 μM erlotinib (Selleck Chemicals), 10 nM gemcitabine (Sigma Aldrich), or a combination. The media was changed and fresh drug was added at least once per week. The cells were counted over the span of several weeks to measure cell growth.

SNU16 cells [12] = assay: 5 day viability assay, CellTiter-Glo 2.0; format: cell-based; settings: Homo sapiens, SNU-16
SNU16 cells [13] = assay: Long-term growth curves under targeted inhibitor; format: cell-based, human; settings: infigratinib at EC90 (1 uM), 6 weeks
Protocol: as §2

[14] = tested on: infigratinib-resistant SNU16 cells; assay: Secondary resistance, cell growth of infigratinib-resistant SNU16 cells over 5 weeks; format: cell-based, human; settings: FIG. 26, 1 uM infigratinib, 1 uM erlotinib, 10 nM gemcitabine
Protocol: The infigratinib-resistant SNU16 cells (generated as shown in FIG. 25) were subdivided into six groups and each group of 1×10^6 cells was subjected to treatment with 1 uM infigratinib, 1 uM erlotinib, 10 nM gemcitabine, or 1 uM erlotinib+10 nM gemcitabine and the cell growth was recorded over 5 weeks. Each treatment arm was terminated once the cell number reached 5×10^6.

[15] = tested on: MYC, FGFR2, and EGFR copy number in SNU16 cells; assay: qPCR gene copy number in SNU16 cells during infigratinib treatment; format: cell-based, human; settings: 1 μM infigratinib for 9 weeks
Protocol: The SNU16 cells were treated with 1 μM of an FGFR inhibitor (infigratinib) for 9 weeks. DNA was collected at days 3, 14, 28, 42, 56, and 63 days and qPCR was performed to assess copy number for MYC. FGFR2, and EGFR at each time point. Cells after 8 weeks of infigratinib treatment and untreated SNU16 control cells were also assayed by FISH for EGFR.
To assess ecDNA copy number dynamics throughout the development of infigratinib resistance, DNA was extracted using the QIAamp DNA Mini Kit (Qiagen) and the DNA was amplified via quantitative PCR (qPCR) using Taqman copy number assays (ThermoFisher). The EGFR Taqman assay ID was Hs00997424_cn; GFGR2 assay ID was Hs05182482_cn; and the MYC assay ID was Hs03660964_cn. The cycle threshold values were normalized to the internal RNase P Taqman assay, and gene copy number was calculated using the ΔΔCt method and the DNA from a diploid control cell line, DLD1.
Methods: SNU16 control cells were cultured in RPMI-1640 media with 10% FBS under standard tissue culture conditions at 37° C. and with 5% CO2. Low passage control cells were treated with 1 μM infigratinib over the course of 9 weeks. Cells were passaged as needed and media and infigratinib were replaced at least once per week. DNA was collected at day 3 and weeks 2, 4, 6, 8 and 9. Cells in metaphase were collected at 8 weeks from both control and infigratinib-resistant cells.

KATOIII cells [16] = assay: 5 day viability assay, CellTiter-Glo 2.0; format: cell-based; settings: Homo sapiens, KATO III

EC90 (H2170 cells): 500 nM
Compound: Cc1cc(Nc2ncnc3ccc(NC4=NC(C)(C)CO4)cc23)ccc1Oc1ccn2ncnc2c1 [irbinitinib]
EC50 (Calu-3 cells [1]): 414 nM
EC50 (SKBR3 cells [2]): 43 nM
EC50 (H2170 cells; H2170, ERBB2 amplification, ecDNA, read-out: 3-5 day acute cytotoxicity EC50): 110 nM
Long-term culture growth properties (Calu-3 cells [3]): Reduced proliferation
Long-term culture growth properties (SKBR3 cells [4]): <1% viability >6 weeks

IC90 ([9]; Homo sapiens, COLO 320DM): 10000 nM
Compound: Cc1ccc(F)c([C@@H](C)[C@H](NS(=O)(=O)c2ccc(Cl)cc2C(N)=O)c2n[nH]c(=O)o2)c1C (racemic) [5-chloro-2-[[rac-(1S,2R)-2-(6-fluoro-2,3-dimethyl-phenyl)-1-(2-oxo-3H-1,3,4-oxadiazol-5-yl)propyl]sulfamoyl]benzamide]
cellular transformation, replication stress [8]: enhanced replication stress and reduced cellular transformation in ecDNA+ compared to ecDNA(−) tumor cells
IC-70 dose [9]: 7 µM

EC90 (SNU16 cells [12]; SNU16): 1000 nM
Compound: CCN1CCN(c2ccc(Nc3cc(N(C)C(=O)Nc4c(Cl)c(OC)cc(OC)c4Cl)ncn3)cc2)CC1 [infigratinib]
Long-term culture growth properties (KATOIII cells [10]): <1 viability >10 weeks
cell growth / development of primary resistance (SNU16 cells [11]; FIG. 25, 12 weeks, 1 uM infigratinib, 1 uM erlotinib, 10 nM gemcitabine): strongly suppressed cell growth for 5 weeks, after which cells developed resistance and grew rapidly
cell growth / resistance formation (SNU16 cells [11]; FIG. 30, 1 μM infigratinib, 1 μM erlotinib, 0.1 μM adavosertib): transient growth suppression
cell growth / resistance formation (SNU16 cells [11]; FIG. 34): transient growth suppression for approximately 3 weeks
EC50 (SNU16 cells [12]; SNU16, ecDNA, read-out: 3-5 day acute cytotoxicity EC50): 14 nM
Long-term culture growth properties (SNU16 cells [13]): Near normal
cell growth / development of secondary resistance [14]: no effect on cell growth on its own
copy number for MYC and FGFR2 [15]: remained relatively constant
copy number of EGFR [15]: increased
EC90 (KATOIII cells [16]): 1000 nM
EC50 (KATOIII cells [16]; Chromosomal, read-out: 3-5 day acute cytotoxicity EC50): 13 nM

Second part, the compound before the results:

Compound: N[C@@H]1CCCN(c2c(Br)cnc3[nH]cc(NC(=O)C4CC4)c23)C1 [GDC-0575]
induction of markers of RS and DNA damage (Chk1 phosphorylation at S345, gH2AX) ([5]; 200 nM for 24 h): much stronger induction of markers of RS and DNA damage than ecDNA− cells
sensitivity of HeLa ecDNA+ over HeLa ecDNA− cells ([5]; HeLa ecDNA+ grown in 1 uM methotrexate): increased sensitivity
development of methotrexate resistance (HeLa cells; in combination with 100 nM methotrexate): prevented development of methotrexate resistance
cell growth (cell confluence), agent alone (HeLa cells; 10 nM GDC-0575, 100 nM methotrexate, 300 nM-10 μM AZD6738): no effect on cell growth
pRPA levels (% total nuclei positive for P-RPA32 S4/S8 foci) [6]: increases pRPA levels in ecDNA+ (DM) cells vs. matched ecDNA− (HSR) cells

Compound: C=C(F)C(=O)N1CCN(c2nc(OC[C@@H]3CCCN3C)nc3c2CCN(c2cccc4cccc(Cl)c24)C3)C[C@@H]1CC#N [adagrasib]
day by which tumors began to exhibit resistance and tumor growth resumed ([7]; Example 3): ≤ 14 days
delay in tumor growth before tumors developed resistance ([7]; Example 4): about 2 weeks
sensitivity to the drug in culture (parental CT26 WT E3 line): remained sensitive to the drug
